By IC50 is commonly meant the concentration that inhibits the measured activity by half. Read a low IC50 as higher potency.

Data set [1] relates to K562 cells. Description: cells. The note with it: Homo sapiens, K562, 24 h.
Data set [2] deals with HL-60 cells. The experiment in a line: cells. The following applies: Homo sapiens, HL-60, 24 h.
Data set [3] relates to KARPAS 45 cells. The experiment in a line: cells. The note with it: Homo sapiens, 24 h.
The subject of data set [4] is HepG2 cells. The experiment in a line: cells. The following applies: Homo sapiens, HepG2, 24 h.
For data set [5], the system named is Chinese hamster (CH) solid tumour cells. The experiment in a line: cells. The note with it: Cricetulus griseus, 24 h.
Data set [6] concerns human peripheral blood mononuclear cells (hPBMC). The experiment in a line: cells. The note with it: PBMC, 24 h.
The nature of data set [7]: in vitro. The note with it: human.
The nature of data set [8]: in vitro. The following applies: Chinese hamster.
Data set [9] has as its system K562 cells. The experiment in a line: Cellular As uptake, K562 cells. The following applies: K562, 24-h treatment, 1.5 μM As. In kind it is cell-based, human. On the procedure:
(§1) FIG. 24 is a graphical summary of the cellular As concentrations associated with the specified cell lines following 24-h treatment (1.5 μM As). The results are represented as the mean and standard deviation of triplicate samples.
(§2) FIG. 24 summarises the cellular As concentrations associated with the different cell types following 24-h treatment with the various As compounds (1.5 μM As). The leukemia cell lines, K562, HL-60, Kasumi-1 and KARPAS 45, are depicted in red (lighter of the filled in blocks), and the non-leukemia cell types are depicted in black (darkest shading), with the cancerous adherent cells, HepG2, in the diagonal stripes, and the normal cells, hPBMC, in solid black.

Data set [10] deals with HL-60 cells. Description: Cellular As uptake, HL-60 cells. Type of data set: cell-based, human. The note with it: HL-60, 24-h treatment, 1.5 μM As. Here is the method:
as §1, §2

Data set [11] concerns Kasumi-1 cells. The experiment in a line: Cellular As uptake, Kasumi-1 cells. Type of data set: cell-based, human. The note with it: Kasumi-1, 24-h treatment, 1.5 μM As. On the procedure: as §1, §2
Data set [12] concerns KARPAS 45 cells. Description: Cellular As uptake, KARPAS 45 cells. In kind it is cell-based, human. The note with it: 1.5 μM As; for cellular As concentration: KARPAS 45, 24-h treatment. Here is the method: as §1, §2
Data set [13] concerns HepG2 cells. Type of data set: cell-based, human.
A further data set concerns hPBMC. Description: Cellular As uptake, hPBMC. The note with it: 24-h treatment, 1.5 μM As. In kind it is cell-based, human. On the procedure:
as §1, §2

In data set [14] the test system is K562 cells.
For data set [15], the system named is KARPAS 45 cells.
In data set [16] the test system is human peripheral blood mononuclear cells (hPBMC).
The test system of data set [17] is Kasumi-1 cells. Description: cells. The note with it: Homo sapiens, Kasumi 1, 24 h.
Data set [18] relates to HL-60 cells.
The test system of data set [19] is HepG2 cells.

Like-named read-outs stand apart in the source and are kept apart here.

Take `CC(=O)Nc1cc([As](=O)(O)O)ccc1O` [Acetarsol]: the half-inhibitory concentration (IC50) (in the data set on K562 cells [1]; in the data set with HL-60 cells [2]; in the data set with KARPAS 45 cells [3]; in the data set on HepG2 cells [4]; in data set [5]; in data set [6]) was over 1000 µM each time. In addition, the viability at 1000 µM with K562 cells [1] (read-out: K562 cells still viable) amounted to 60.5%. Moreover, the viability in the data set “in vitro [7]” and in “in vitro [8]” was about 100% in each case.
As to `O=[As]O` [Arsenite, Sodium meta-arsenite], the “cellular As concentration” value with K562 cells [9], in the data set with HL-60 cells [10], with Kasumi-1 cells [11], in the data set with KARPAS 45 cells [12], with HepG2 cells [13] and in the data set with hPBMC was < 4×10^−14 g/cell throughout. Also, the “cellular As concentration in KARPAS 45 cells, times more than in HepG2 cells” value with KARPAS 45 cells [12] (24-h treatment) came out at 2.2 times. Further, the concentration for half-maximal inhibition (IC50) with K562 cells [14] is 18.6 ± 0.5 µM; in the data set on KARPAS 45 cells [15], 66 ± 3 µM; in [16], 40 ± 8 µM; in the data set on K562 cells [1], 18.6 ± 0.49 µM; with HL-60 cells [2], 20 ± 1 µM; with Kasumi-1 cells [17], 61.2 ± 0.6 µM. The IC50 in the data set with KARPAS 45 cells [3] is 66.2 ± 2.6 µM; with HepG2 cells [4] it was 89 ± 1 µM; in data set [5], 26.1 ± 0.8 µM; in data set [6], 40.1 ± 7.7 µM.
Regarding `CC(=O)N[C@H]1CS[As](c2ccccc2)SC[C@@H](C(=O)O)NC(=O)[C@H](CCCNC(=N)N)NC(=O)[C@H](CC(C)C)NC(=O)[C@H](Cc2ccc(O)cc2)NC(=O)[C@H](CCCNC(=N)N)NC(=O)[C@H](Cc2c[nH]cn2)NC(=O)[C@H](CCCNC(=N)N)NC(=O)[C@H](C)NC1=O` (some centres unmarked) [PhAs(sLHP)], the “cellular As concentration” value with K562 cells [9], with HL-60 cells [10], in the data set on Kasumi-1 cells [11], in the data set with KARPAS 45 cells [12], with HepG2 cells [13] and in the data set with hPBMC was “no detectable As uptake” in each case. The IC50 with K562 cells [14] was 790 ± 30 µM; with HL-60 cells [18] it was 205 ± 4 µM; in the data set with HepG2 cells [19], 960 ± 10 µM; in [16], 665 ± 8 µM. Besides, the “times less toxic than PhAs(LHP)” value with K562 cells [14] was determined as 1600 times; with KARPAS 45 cells [15], 32 times.

The record behind these values is patent US11819489B2 (priority 2017, dated 2023).
